According to PMC9782297, “Integracides: Tetracyclic Triterpenoids from Fusarium sp.—Their 5-Lipoxygenase Inhibitory Potential and Structure–Activity Relation Using In Vitro and Molecular Docking Studies” (Life, 2022):

Target: 5-LOX (5-lipoxygenase)
Assay: 5-Lipoxygenase inhibitory assay
Type: biochemical
Conditions: conc. 0.001, 0.01, 1.0 and 10 µM; zileuton positive control; read-out: 5-LOX inhibition IC50
Description: Optical rotation was estimated using a 341LC Perkin-Elmer polarimeter (Perkin-Elmer, Waltham, MA, USA). UV and IR were assessed employing Shimadzu UV/VIS 1601 and IR-400 spectrophotometers (Shimadzu, Kyoto, Japan), respectively. Orbitrap LTQ (ThermoFinnigan, Bremen, Germany) and 850 INOVA BRUKER (Bruker BioSpin, Billerica, MA, USA) were utilized for HRESIMS and NMR measuring. The chromatographic investigation was achieved utilizing SiO260/Sephadex LH-20/RP-18, in addition to a 6-mL RP-18 LiChrolut extraction tube (Merck/Darmstadt/Germany).
IC50s were estimated by regression analysis (GraphPad-InStat 3, GraphPad Software, San Diego, CA, USA). The % 5-LOX inhibition of and IC50s are listed as mean-values ±SD. Statistical significance was analyzed among the samples by one-way-ANOVA and subsequently by Tukey–Kramer test (p < 0.005).

| Structure (SMILES) | IC50 [nM] |
| --- | --- |
| C=C(CCC(C)C1CC=C2C3=C(C(O)C(OC(C)=O)C21C)C1(C)CC(O)C(OC(C)=O)C(C)(C)C1CC3)C(C)C (stereo not drawn) [Compound 3, integracide F] | 2760 |
| C=C(CCC(C)C1CC=C2C3=C(C(O)C(OC(C)=O)C21C)C1(C)CC(OC(C)=O)C(OC(C)=O)C(C)(C)C1CC3)C(C)C (stereo not drawn) [Compound 5, integracide H] | 1460 |
| C=C(CC[C@@H](C)[C@H]1CC=C2C3=C([C@@H](O)[C@H](OC(C)=O)[C@@]21C)[C@@]1(C)C[C@@H](O)[C@H](O)C(C)(C)[C@@H]1CC3)C(C)C [Compound 2, integracide B] | 3970 |
| C=C(CCC(C)C1CC=C2C3=C(C(O)C(OC(C)=O)C21C)C1(C)CC(O)C(OC(=O)CCCCCCCCCO)C(C)(C)C1CC3)C(C)C (stereo not drawn) [Compound 4, integracide G] | 1180 |
| C=C(CCC(C)C1CC=C2C3=C(C(O)C(OC(C)=O)C21C)C1(C)CC(O)C(OC(=O)c2ccc(O)cc2)C(C)(C)C1CC3)C(C)C (stereo not drawn) [Compound 6, integracide J] | 2010 |
| C=C(CCC(C)C1(O)CCC2C3=C(C(O)C(OC(C)=O)C21C)C1(C)CC(O)C(OC(C)=O)C(C)(C)C1CC3)C(C)C (stereo not drawn) [Compound 1, integracide L] | 3450 |
